Reference: PubChem BioAssay AID2060484 (Molecular Pharmacology Branch, DTP, NCI, 2025)

Test system: SUM149PT spheroids with HUVEC/MSC, viability
Test: Anticancer human tumor SUM149PT cell line growth inhibition [GQUAD];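 further: spheroids exposed to drugs for seven days before readout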;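 on viability, T/C: percent viability relative to DMSO vehicle control taken as 100%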
Details: for IC50: curve of first compound; for viability, T/C: stronger effect = lower value; active means viability on the fitted dose curve at most 10% of control; inactive means the rest
Procedure, shortened: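 Multi-cell-type spheroids of tumor cells with HUVEC and mesenchymal stem cells, treated with drug combinations. Concentrations descend in half-log steps from near clinical Cmax, or from 10 microM where Cmax is unknown; viability read-out.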

[1] = second compound 0.0316 µM, first compound 0.0316 µM
[2] = second compound 0.0316 µM, first compound 0.1 µM
[3] = second compound 0.0316 µM, first compound 0.316 µM
[4] = second compound 0.0316 µM, first compound 1 µM
[5] = second compound 0.0316 µM, first compound 3.16 µM
[6] = second compound 0.0316 µM, first compound 10 µM
[7] = second compound 0.1 µM, first compound 0.0316 µM
[8] = second compound 0.1 µM, first compound 0.1 µM
[9] = second compound 0.1 µM, first compound 0.316 µM
[10] = second compound 0.1 µM, first compound 1 µM
[11] = second compound 0.1 µM, first compound 3.16 µM
[12] = second compound 0.1 µM, first compound 10 µM
[13] = second compound 0.316 µM, first compound 0.0316 µM
[14] = second compound 0.316 µM, first compound 0.1 µM
[15] = second compound 0.316 µM, first compound 0.316 µM
[16] = second compound 0.316 µM, first compound 1 µM
[17] = second compound 0.316 µM, first compound 3.16 µM
[18] = second compound 0.316 µM, first compound 10 µM
[19] = second compound 1 µM, first compound 0.0316 µM
[20] = second compound 1 µM, first compound 0.1 µM
[21] = second compound 1 µM, first compound 0.316 µM
[22] = second compound 1 µM, first compound 1 µM
[23] = second compound 1 µM, first compound 3.16 µM
[24] = second compound 1 µM, first compound 10 µM
[25] = second compound 3.16 µM, first compound 0.0316 µM
[26] = second compound 3.16 µM, first compound 0.1 µM
[27] = second compound 3.16 µM, first compound 0.316 µM
[28] = second compound 3.16 µM, first compound 1 µM
[29] = second compound 3.16 µM, first compound 3.16 µM
[30] = second compound 3.16 µM, first compound 10 µM
[31] = second compound 10 µM, first compound 0.0316 µM
[32] = second compound 10 µM, first compound 0.1 µM
[33] = second compound 10 µM, first compound 0.316 µM
[34] = second compound 10 µM, first compound 1 µM
[35] = second compound 10 µM, first compound 3.16 µM
[36] = second compound 10 µM, first compound 10 µM

Cc1cccc(N(C)C(=O)C2C(O)CCN2c2nc(C)cc(C(F)(F)F)c2C#N)c1 (centres undefined) + Cc1[nH]c2ccc(F)cc2c1-c1nc2c3cccnc3c3ncccc3c2[nH]1
> 10 µM: IC50 (second compound 0.0316 µM) | IC50 (second compound 0.1 µM) | IC50 (second compound 0.316 µM) | IC50 (second compound 1 µM) | IC50 (second compound 3.16 µM) | IC50 (second compound 10 µM)
inactive: viability, T/C [1] 98.2% | viability, T/C [2] 92.6% | viability, T/C [3] 105% | viability, T/C [4] 95.4% | viability, T/C [5] 96.5% | viability, T/C [6] 92.6% | viability, T/C [7] 102% | viability, T/C [8] 101% | viability, T/C [9] 104% | viability, T/C [10] 96.7% | viability, T/C [11] 98% | viability, T/C [12] 99% | viability, T/C [13] 97.8% | viability, T/C [14] 94.7% | viability, T/C [15] 96% | viability, T/C [16] 97.3% | viability, T/C [17] 96.1% | viability, T/C [18] 95.5% | viability, T/C [19] 97.3% | viability, T/C [20] 102% | viability, T/C [21] 91.1% | viability, T/C [22] 98% | viability, T/C [23] 91.2% | viability, T/C [24] 108% | viability, T/C [25] 96.5% | viability, T/C [26] 102% | viability, T/C [27] 105% | viability, T/C [28] 105% | viability, T/C [29] 106% | viability, T/C [30] 102% | viability, T/C [31] 92.5% | viability, T/C [32] 93% | viability, T/C [33] 105% | viability, T/C [34] 84.8% | viability, T/C [35] 103% | viability, T/C [36] 96.7%

O=c1[nH]cc(F)c(=O)[nH]1 + Cc1[nH]c2ccc(F)cc2c1-c1nc2c3cccnc3c3ncccc3c2[nH]1
6.93 µM: IC50 (second compound 0.1 µM)
inactive: viability, T/C [1] 103% | viability, T/C [2] 97.3% | viability, T/C [3] 107% | viability, T/C [4] 95.6% | viability, T/C [5] 57.8% | viability, T/C [6] 47.5% | viability, T/C [7] 104% | viability, T/C [8] 101% | viability, T/C [9] 108% | viability, T/C [10] 111% | viability, T/C [11] 58.3% | viability, T/C [12] 46.1% | viability, T/C [13] 99.6% | viability, T/C [14] 104% | viability, T/C [15] 97.7% | viability, T/C [16] 102% | viability, T/C [17] 61.9% | viability, T/C [18] 48.5% | viability, T/C [19] 103% | viability, T/C [20] 107% | viability, T/C [21] 98.4% | viability, T/C [22] 110% | viability, T/C [23] 63.9% | viability, T/C [24] 45.6% | viability, T/C [25] 97.5% | viability, T/C [26] 98.1% | viability, T/C [27] 102% | viability, T/C [28] 103% | viability, T/C [29] 56.2% | viability, T/C [30] 42.1% | viability, T/C [31] 79.9% | viability, T/C [32] 85.1% | viability, T/C [33] 101% | viability, T/C [34] 99.5% | viability, T/C [35] 51.2% | viability, T/C [36] 37.2%
7.58 µM: IC50 (second compound 1 µM)
5.27 µM: IC50 (second compound 3.16 µM)
3.52 µM: IC50 (second compound 10 µM)
> 10 µM: IC50 (second compound 0.316 µM)
7.57 µM: IC50 (second compound 0.0316 µM)
